{"source": "patent US11377473B2", "about": "“Albumin-binding prodrugs of auristatin E derivatives” (priority 2017, dated 2022)", "key": {"[1]": {"target": "T1, albumin in murine plasma (Mus musculus, UniProt P07724)", "T1 construct": "CD1 murine plasma and Sprague Dawley rat plasma were removed from −80° C. storage; from tissue; host or cells: CD1 murine plasma (frozen, thawed, filtered)", "T1 sequence (P07724 25-608)": "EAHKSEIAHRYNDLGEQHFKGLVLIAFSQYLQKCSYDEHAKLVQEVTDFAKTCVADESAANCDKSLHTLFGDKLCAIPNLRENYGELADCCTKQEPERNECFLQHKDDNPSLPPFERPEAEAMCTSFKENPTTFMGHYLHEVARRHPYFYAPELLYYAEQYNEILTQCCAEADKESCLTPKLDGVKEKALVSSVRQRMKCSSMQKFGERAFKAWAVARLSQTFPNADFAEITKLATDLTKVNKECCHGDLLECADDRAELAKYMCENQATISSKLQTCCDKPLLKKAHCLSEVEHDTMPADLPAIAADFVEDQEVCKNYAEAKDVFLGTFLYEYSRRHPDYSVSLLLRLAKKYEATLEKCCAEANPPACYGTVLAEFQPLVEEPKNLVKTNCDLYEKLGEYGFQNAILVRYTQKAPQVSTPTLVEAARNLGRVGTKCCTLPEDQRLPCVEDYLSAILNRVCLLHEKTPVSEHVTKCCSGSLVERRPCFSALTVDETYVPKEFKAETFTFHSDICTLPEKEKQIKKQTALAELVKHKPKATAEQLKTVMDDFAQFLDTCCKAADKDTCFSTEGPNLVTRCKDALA", "experiment": "Binding kinetics to albumin in murine plasma", "type": "in vitro ADME, CD1 murine", "conditions": "37° C.", "procedure": "CD1 murine plasma and Sprague Dawley rat plasma were removed from −80° C. storage and allowed to reach room temperature. The thawed plasma was spun down at 13.6 kRPM for 60 seconds, the supernatant was filtered through a filter needle (5 μm) and subsequently through a 0.45 μm CA membrane.\nAll binding experiments were carried out in triplicate. The plasma was incubated at 37° C. using an Eppendorf Thermomixer C. After 30 minutes incubation 40 μL of the appropriate albumin-binding auristatin-Sulf07 derivative was dissolved in its reconstitution solution and added to the plasma. Samples (40 μL) were taken after 15 seconds, 2 minutes, 4 minutes, 8 minutes and 15 minutes (5 samples).\nThe samples were immediately added to 160 μL of acetonitrile (containing 4 μg/mL of 'MMAE as an internal standard) and vortexed for 1 minute.\nThe solutions were pipetted into an Impact plasma precipitation plate (shaken for 60 seconds) and filtered by vacuum onto a 96 well plate. Remaining drug was determined by LCMS quantification (method 5, 30 μL injection) using MRM MS2 negative mode (multiple reaction monitoring). Parent ions: auristatin F (Mass-744.8), AE-Keto-Sulf07 (Mass-1135.1) and AE-Ester-Sulf07 (Mass-1283.2). Percentage of binding was determined by comparing the AUC for AE-Keto-Sulf07 and AE-Ester-Sulf07 to calibration curves generated by LCMS for each compound."}, "[2]": {"test_system": "human tumor xenograft models", "experiment": "Antitumor activity in human tumor xenograft mice models (overall statement)", "type": "in vivo, nude mice", "conditions": "starting tumor volumes approximately 130-170 mm^3 and up to approximately 380 mm^3"}, "[3]": {"test_system": "NSCLC xenograft model LXFA737", "experiment": "Human non-small cell lung cancer model LXFA737, small tumors", "type": "in vivo, NMRI nude mice", "conditions": "for p, antitumor efficacy versus auristatin E: 8 times twice weekly, day 56 and 63", "description": "Mice were kept under a 14-hour light/10-hour dark, artificial light cycle. The animals were fed with autoclaved Teklad Global 19% Protein Extruded Diet (T.2019S.12) from Envigo RMS SARL and had access to sterile filtered and acidified (pH 2.5) tap water which was changed twice weekly. Feed and water were provided ad libitum. […] Animals were routinely monitored twice daily on working days and daily on Saturdays and Sundays. Starting on day 0, animals were weighed twice a week. Relative body weights (RBW) of individual animals were calculated by dividing the individual absolute body weight on day X (BWx) by the individual body weight on the day of randomization multiplied by 100%. […] Tumor volumes were calculated according to the following equation: […]\nStatistical analysis was only carried out if at least 50% of the initially randomized animals in a relevant group were still alive. Comparisons between test groups were carried out for the same days. By convention, p-values ≤0.05 indicate significance of tumor inhibition. Statistical calculations were performed using GraphPad Prism bioanalytic software (San Diego Calif. USA, www.graphpad.com).\nThe evaluation of auristatin E and the albumin-binding auristatin E derivative AE-Keto-Sulf07 in a human non-small cell lung cancer model LXFA737 was carried out as described in the general procedure for patient-derived xenograft models.\nSample preparation: 38 mg weighed in a 30 mL vial dissolved in 23.8 mL 50/50 tert-butanol/10 mM sodium citrate buffer, 5% sucrose—pH 6; 1.2 mL were aliquoted in 4 mL vials.\nThe evaluation of auristatin E and the albumin-binding auristatin E derivative AE-Ester-Sulf07 in a human non-small cell lung cancer model LXFA737 was carried out as described in the general procedure for patient-derived xenograft models."}, "[4]": {"test_system": "human ovarian carcinoma model A2780", "experiment": "Human ovarian carcinoma model A2780, small tumors", "type": "in vivo, NMRI nude mice", "procedure": "Feed and water were provided ad libitum. […] Identification used: ear mark and cage labels. […] Tumor volumes were calculated according to the following equation: […]\nThe evaluation of auristatin E and the albumin-binding auristatin E derivative AE-Keto-Sulf07 in a human ovarian carcinoma model A2780 was carried out as described in the general procedure for cell-line-derived xenograft models.\nThe evaluation of the albumin-binding auristatin E derivative AE-Ester-Sulf07 in a human ovarian carcinoma model A2780 was carried out as described in the general procedure for cell-line-derived xenograft models.\nAE-Ester-Sulf07 was also tested in the same ovarian carcinoma model A2780 with smaller tumors and a different dosing scheme to diminish the side effects of the drug on the skin of the mice. AE-Ester-Sulf07 was dosed at 3.8 mg/kg four times once weekly, showing again a statistically significant improved antitumor effect compared to the control (p<0.01 from day 7 to 14). Mice treated with AE-Ester-Sulf07 in the new dosing regimen achieved partial remission from day 12 until day 35 and complete remission from day 39 until the end of the study on day 70."}, "[5]": {"target": "T2, cysteine-34 of human serum albumin (Homo sapiens, UniProt P02768)", "T2 construct": "from tissue; host or cells: human plasma (frozen, thawed, filtered)", "T2 sequence (P02768 25-609)": "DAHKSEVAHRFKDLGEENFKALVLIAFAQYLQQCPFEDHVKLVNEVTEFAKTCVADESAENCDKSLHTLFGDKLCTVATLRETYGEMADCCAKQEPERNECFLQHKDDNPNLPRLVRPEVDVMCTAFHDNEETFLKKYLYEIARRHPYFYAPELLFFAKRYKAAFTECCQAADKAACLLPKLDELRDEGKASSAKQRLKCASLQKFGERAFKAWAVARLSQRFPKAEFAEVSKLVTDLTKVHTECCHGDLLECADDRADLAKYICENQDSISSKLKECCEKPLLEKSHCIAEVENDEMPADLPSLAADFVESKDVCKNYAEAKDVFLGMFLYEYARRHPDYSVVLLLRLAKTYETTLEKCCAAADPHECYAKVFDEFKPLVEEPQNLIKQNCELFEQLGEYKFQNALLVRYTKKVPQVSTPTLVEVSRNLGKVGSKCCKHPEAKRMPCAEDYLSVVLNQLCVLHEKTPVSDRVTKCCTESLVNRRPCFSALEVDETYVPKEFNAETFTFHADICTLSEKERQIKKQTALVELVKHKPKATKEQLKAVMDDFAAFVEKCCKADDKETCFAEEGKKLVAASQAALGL", "experiment": "Binding specificity to cysteine-34 of human serum albumin in human plasma (HIC)", "type": "in vitro ADME", "conditions": "5 minutes at 37° C.", "procedure": "The albumin-binding auristatin-Sulf07 derivatives were reconstituted in 50 mM sodium phosphate buffer pH 7.6 and 5% sucrose which contained 2-HPβCD. 2% HPβCD concentration was used to reconstitute the AE-Keto-Sulf07 and 4% for the AE-Ester-Sulf07 respectively. Both drugs were reconstituted at a concentration of 1 mg/mL (AE-Ester-Sulf07 780 μM, AE-Keto-Sulf07 880 μM).\nHuman plasma was removed from −80° C. storage and allowed to reach room temperature. The thawed plasma was spun down at 13.6 kRPM for 60 seconds, the supernatant was filtered through filter needle (5 μm) and subsequently through a 0.45 μm CA membrane. 180 μL of the appropriate plasma was used for each binding experiment. The plasma was incubated at 37° C. using an Eppendorf Thermomixer C. After 30 minutes incubation 20 μL of the appropriate albumin-binding auristatin-Sulf07 derivative was added. The albumin-binding drug was allowed to react in the plasma for 5 minutes at 37° C. After 5 minutes the solution was analyzed directly by HPLC hydrophobic interaction chromatography (HIC, method 6, 250 nm) to confirm the site specific conjugation to albumin and formation of the albumin drug conjugate."}}, "data": [{"molecule": "2-(2-(1-(4-(((1S,2R)-2-((2R,3R)-3-((S)-1-((3R,4R,5S)-4-((S)-2-((R)-2-(dimethylamino)-3-methylbutanamido)-N,3-dimethylbutanamido)-3-methoxy-5-methylheptanoyl)pyrrolidin-2-yl)-3-methoxy-2-methylpropanamido)-1-phenylpropoxy)carbonyl)phenyl)ethylidene)hydrazine-1-carbonyl)-5-(6-(2,5-dioxo-2,5-dihydro-1H-pyrrol-1-yl)hexanamido)benzenesulfonic acid [AE-Ester-Sulf07]", "values": [{"measurement": "albumin binding in plasma", "setting": "[1]", "result": "very rapid"}, {"measurement": "antitumor activity in all human tumor xenografts evaluated", "setting": "[2]", "result": "partial and complete remissions"}, {"measurement": "animals lost", "setting": "[3]; 2.4 mg/kg 8 times twice weekly", "result": "five mice had to be euthanized due to a combination of body weight loss and skin lesions"}, {"measurement": "tumor response", "setting": "[3]; 2.4 mg/kg 8 times twice weekly, reached on day 21, until end of study on day 74", "result": "complete tumor remission"}, {"measurement": "p, antitumor efficacy versus auristatin E", "setting": "[3]; 2.4 mg/kg versus auristatin E 0.3 mg/kg", "result": "< 0.05"}, {"measurement": "tumor volume", "setting": "[3]; 2.4 mg/kg, until end of study on day 74", "result": "unmeasurable level"}, {"measurement": "animals lost", "setting": "[4]; 3.8 mg/kg four times once weekly", "result": "Three AE-Ester-Sulf07 treated mice showed body weight loss and had to be sacrificed on day 59"}, {"measurement": "p, antitumor effect compared to the control", "setting": "[4]; 3.8 mg/kg four times once weekly, day 7 to 14", "result": "< 0.01"}, {"measurement": "tumor response", "setting": "[4]; 3.8 mg/kg four times once weekly, day 12 until day 35", "result": "partial remission (partial remission >10-50%)"}, {"measurement": "tumor response", "setting": "[4]; 3.8 mg/kg four times once weekly, day 39 until end of study on day 70", "result": "complete remission (complete remission <10%)"}, {"measurement": "specificity of binding to albumin", "setting": "[5]", "result": "demonstrated"}]}, {"molecule": "CC[C@H](C)[C@@H]([C@@H](CC(=O)N1CCC[C@H]1[C@H](OC)[C@@H](C)C(=O)N[C@H](C)C(=NNC(=O)c1ccc(NC(=O)CCCCCN2C(=O)C=CC2=O)cc1S(=O)(=O)O)c1ccccc1)OC)N(C)C(=O)[C@@H](NC(=O)[C@H](C(C)C)N(C)C)C(C)C", "note": "[AE-Keto-Sulf07, 2-(2-((R)-2-((2R,3R)-3-((S)-1-((3R,4S,5S)-4-((S)-2-((S)-2-(dimethylamino)-3-methylbutanamido)-N,3-dimethylbutanamido)-3-methoxy-5-methylheptanoyl)pyrrolidin-2-yl)-3-methoxy-2-methylpropanamido)-1-phenylpropylidene)hydrazine-1-carbonyl)-5-(6-(2,5-dioxo-2,5-dihydro-1H-pyrrol-1-yl)hexanamido)benzenesulfonic acid]", "values": [{"measurement": "albumin binding in plasma", "setting": "[1]", "result": "very rapid"}, {"measurement": "antitumor activity in all human tumor xenografts evaluated", "setting": "[2]", "result": "partial and complete remissions"}, {"measurement": "tumor response", "setting": "[3]; 4.5 mg/kg 8 times twice weekly, reached on day 28, until end of study on day 74", "result": "complete tumor remission"}, {"measurement": "p, antitumor efficacy versus auristatin E", "setting": "[3]; 4.5 mg/kg (polysorbate 80 and 2-HPßCD buffers) versus auristatin E 0.3 mg/kg", "result": "< 0.01"}, {"measurement": "animals lost", "setting": "[3]; 4.5 mg/kg administered in polysorbate 80", "result": "two mice had to be sacrificed for general bad conditions"}, {"measurement": "maximum body weight loss", "setting": "[3]; 4.5 mg/kg in 2-HPßCD, day 32", "result": "−7", "unit": "%"}, {"measurement": "tumor volume", "setting": "[3]; 4.5 mg/kg, until end of study on day 74, independently of the buffer", "result": "unmeasurable level"}, {"measurement": "tumor response", "setting": "[4]; 3.0 and 5.0 mg/kg eight times twice weekly, day 9 until end of study on day 60", "result": "partial remission (partial remission >10-50%)"}, {"measurement": "p, antitumor efficacy versus auristatin E", "setting": "[4]; 3.0 and 5.0 mg/kg versus auristatin E 0.3 mg/kg, eight times twice weekly, day 7 to day 29", "result": "< 0.01"}, {"measurement": "transient body weight loss", "setting": "[4]; 3.0 and 5.0 mg/kg, after the first treatment", "result": "~2", "unit": "%"}, {"measurement": "tumor response (transient)", "setting": "[4]; higher dose 5.0 mg/kg, day 25 to day 51", "result": "complete remission (complete remission <10%)"}, {"measurement": "animals lost", "setting": "[4]; higher dose group 5.0 mg/kg", "result": "One mouse from the higher dose group was found dead on day 35"}, {"measurement": "tumor response (transient)", "setting": "[4]; lower dose 3.0 mg/kg, day 23 to day 35", "result": "complete remission (complete remission <10%)"}, {"measurement": "animals lost", "setting": "[4]; lower dose group 3.0 mg/kg", "result": "one from the lower dose group had to be sacrificed on day 42 for general bad conditions"}, {"measurement": "specificity of binding to albumin", "setting": "[5]", "result": "demonstrated"}]}, {"molecule": "CC[C@H](C)[C@@H]([C@@H](CC(=O)N1CCC[C@H]1[C@H](OC)[C@@H](C)C(=O)N[C@H](C)[C@@H](O)c1ccccc1)OC)N(C)C(=O)[C@@H](NC(=O)[C@H](C(C)C)N(C)C)C(C)C", "note": "[auristatin E]", "values": [{"measurement": "antitumor activity in all human tumor xenografts evaluated", "setting": "[2]", "result": "principally inactive"}, {"measurement": "tumor response", "setting": "[3]; 0.3 mg/kg 8 times twice weekly, temporarily, day 21 to day 42", "result": "stable disease (stable disease >75-125%)"}, {"measurement": "antitumor effect", "setting": "[4]; 0.3 mg/kg eight times twice weekly", "result": "did not achieve any antitumor effect"}]}]}
